Laboratory results from ChEMBL document CHEMBL5058644, “Data for DCP probe JNJ-39758979” (2022).

Assays:
[1] = target: Serine/threonine-protein kinase PLK3 (Homo sapiens) (UniProt Q9H4B4); assay: Plk3(h) Millipore kinase panel; settings: Compound concentration 10.0 uM
[2] = target: Melanocortin receptor 4 (Homo sapiens) (UniProt P32245); assay: MC4 (h) CEREP panel; settings: Compound concentration 1.0 uM
[3] = target: Interleukin-1 receptor-associated kinase 1 (Homo sapiens) (UniProt P51617); assay: IRAK1(h) Millipore kinase panel; settings: Compound concentration 10.0 uM
[4] = target: Histamine H1 receptor (Homo sapiens) (UniProt P35367); assay: H1 (h) CEREP panel; settings: Compound concentration 1.0 uM
[5] = target: ALK tyrosine kinase receptor (Homo sapiens) (UniProt Q9UM73); assay: ALK(h) Millipore kinase panel; settings: Compound concentration 10.0 uM
[6] = target: Neuropeptide Y receptor type 2 (Homo sapiens) (UniProt P49146); assay: Y2 (h) CEREP panel; settings: Compound concentration 1.0 uM
[7] = target: Serine/threonine-protein kinase Nek2 (Homo sapiens) (UniProt P51955); assay: NEK2(h) Millipore kinase panel; settings: Compound concentration 10.0 uM
[8] = target: Serine/threonine-protein kinase WNK2 (Homo sapiens) (UniProt Q9Y3S1); assay: WNK2(h) Millipore kinase panel; settings: Compound concentration 10.0 uM
[9] = target: Calcium/calmodulin-dependent protein kinase type 1 (Homo sapiens) (UniProt Q14012); assay: CaMKI(h) Millipore kinase panel; settings: Compound concentration 10.0 uM
[10] = target: Serine/threonine-protein kinase pim-1 (Homo sapiens) (UniProt P11309); assay: Pim-1(h) Millipore kinase panel; settings: Compound concentration 10.0 uM
[11] = target: Tyrosine-protein kinase CSK (Homo sapiens) (UniProt P41240); assay: CSK(h) Millipore kinase panel; settings: Compound concentration 10.0 uM
[12] = target: Ribosomal protein S6 kinase alpha-5 (Homo sapiens) (UniProt O75582); assay: MSK1(h) Millipore kinase panel; settings: Compound concentration 10.0 uM
[13] = BZD (central) CEREP panel; settings: Compound concentration 1.0 uM
[14] = target: Substance-K receptor (Homo sapiens) (UniProt P21452); assay: NK2 (h) CEREP panel; settings: Compound concentration 1.0 uM
[15] = target: Serine/threonine-protein kinase Sgk1 (Homo sapiens) (UniProt O00141); assay: SGK(h) Millipore kinase panel; settings: Compound concentration 10.0 uM
[16] = target: Mu-type opioid receptor (Homo sapiens) (UniProt P35372); assay: mu (h) CEREP panel; settings: Compound concentration 1.0 uM
[17] = target: cAMP-dependent protein kinase catalytic subunit alpha (Homo sapiens) (UniProt P17612); assay: PKA(h) Millipore kinase panel; settings: Compound concentration 10.0 uM
[18] = target: Serine/threonine-protein kinase D2 (Homo sapiens) (UniProt Q9BZL6); assay: PKD2(h) Millipore kinase panel; settings: Compound concentration 10.0 uM
[19] = target: Ribosomal protein S6 kinase beta-1 (Homo sapiens) (UniProt P23443); assay: p70S6K(h) Millipore kinase panel; settings: Compound concentration 10.0 uM
[20] = target: Dual specificity protein kinase CLK3 (Homo sapiens) (UniProt P49761); assay: CLK3(h) Millipore kinase panel; settings: Compound concentration 10.0 uM
[21] = target: Tyrosine-protein kinase Fer (Homo sapiens) (UniProt P16591); assay: Fer(h) Millipore kinase panel; settings: Compound concentration 10.0 uM
[22] = target: Galanin receptor type 2 (Homo sapiens) (UniProt O43603); assay: GAL2 (h) CEREP panel; settings: Compound concentration 1.0 uM
Homo sapiens = species: Homo sapiens; assay: CK2(h) Millipore kinase panel; settings: Compound concentration 10.0 uM
[23] = target: C-C chemokine receptor type 1 (Homo sapiens) (UniProt P32246); assay: CCR1 (h) CEREP panel; settings: Compound concentration 1.0 uM
[24] = target: Adenosine receptor A3 (Homo sapiens) (UniProt P0DMS8); assay: A3 (h) CEREP panel; settings: Compound concentration 1.0 uM
[25] = target: Sodium-dependent dopamine transporter (Homo sapiens) (UniProt Q01959); assay: DA transporter (h) CEREP panel; settings: Compound concentration 1.0 uM
[26] = target: Angiopoietin-1 receptor (Homo sapiens) (UniProt Q02763); assay: Tie2(h) Millipore kinase panel; settings: Compound concentration 10.0 uM
[27] = target: Focal adhesion kinase 1 (Homo sapiens) (UniProt Q05397); assay: FAK(h) Millipore kinase panel; settings: Compound concentration 10.0 uM
[28] = target: RAC-gamma serine/threonine-protein kinase (Homo sapiens) (UniProt Q9Y243); assay: PKBγ(h) Millipore kinase panel; settings: Compound concentration 10.0 uM
[29] = target: Tyrosine-protein kinase SYK (Homo sapiens) (UniProt P43405); assay: Syk(h) Millipore kinase panel; settings: Compound concentration 10.0 uM
[30] = target: D(2) dopamine receptor (Homo sapiens) (UniProt P14416); assay: D2 (h) CEREP panel; settings: Compound concentration 1.0 uM
[31] = target: Serine/threonine-protein kinase VRK2 (Homo sapiens) (UniProt Q86Y07); assay: VRK2(h) Millipore kinase panel; settings: Compound concentration 10.0 uM
[32] = target: Serine/threonine-protein kinase DCLK2 (Homo sapiens) (UniProt Q8N568); assay: DCAMKL2(h) Millipore kinase panel; settings: Compound concentration 10.0 uM
[33] = Ca2+ channel CEREP panel; settings: Compound concentration 1.0 uM
[34] = target: Proto-oncogene tyrosine-protein kinase receptor Ret (Homo sapiens) (UniProt P07949); assay: Ret(h) Millipore kinase panel; settings: Compound concentration 10.0 uM
[35] = target: Vasoactive intestinal polypeptide receptor 1 (Homo sapiens) (UniProt P32241); assay: VIP1 (h) (VPAC1) CEREP panel; settings: Compound concentration 1.0 uM
[36] = target: Proto-oncogene tyrosine-protein kinase ROS (Homo sapiens) (UniProt P08922); assay: Ros(h) Millipore kinase panel; settings: Compound concentration 10.0 uM
[37] = target: Tyrosine-protein kinase JAK2 (Homo sapiens) (UniProt O60674); assay: JAK2(h) Millipore kinase panel; settings: Compound concentration 10.0 uM
[38] = target: Vasopressin V1a receptor (Homo sapiens) (UniProt P37288); assay: V1A (h) CEREP panel; settings: Compound concentration 1.0 uM
[39] = target: Casein kinase I isoform delta (Homo sapiens) (UniProt P48730); assay: CK1δ(h) Millipore kinase panel; settings: Compound concentration 10.0 uM
[40] = target: D(1A) dopamine receptor (Homo sapiens) (UniProt P21728); assay: D1 (h) CEREP panel; settings: Compound concentration 1.0 uM
[41] = target: Interleukin-1 receptor-associated kinase 4 (Homo sapiens) (UniProt Q9NWZ3); assay: IRAK4(h) Millipore kinase panel; settings: Compound concentration 10.0 uM
[42] = target: Serine/threonine-protein kinase STK11 (Homo sapiens) (UniProt Q15831); assay: LKB1(h) Millipore kinase panel; settings: Compound concentration 10.0 uM
[43] = SK+Ca channel CEREP panel; settings: Compound concentration 1.0 uM
[44] = target: Neuromedin-K receptor (Homo sapiens) (UniProt P29371); assay: NK3 (h) CEREP panel; settings: Compound concentration 1.0 uM
[45] = target: Histamine H2 receptor (Homo sapiens) (UniProt P25021); assay: H2 (h) CEREP panel; settings: Compound concentration 1.0 uM
[46] = target: High affinity nerve growth factor receptor (Homo sapiens) (UniProt P04629); assay: TrkA(h) Millipore kinase panel; settings: Compound concentration 10.0 uM
[47] = target: Muscarinic acetylcholine receptor M3 (Homo sapiens) (UniProt P20309); assay: M3 (h) CEREP panel; settings: Compound concentration 1.0 uM
[48] = MT1 CEREP panel; settings: Compound concentration 1.0 uM
[49] = target: cGMP-dependent protein kinase 1 (Homo sapiens) (UniProt Q13976); assay: PKG1α(h) Millipore kinase panel; settings: Compound concentration 10.0 uM
[50] = target: 5-hydroxytryptamine receptor 1B (Homo sapiens) (UniProt P28222); assay: 5-HT1B CEREP panel; settings: Compound concentration 1.0 uM
[51] = target: Tyrosine-protein kinase ABL1 (Homo sapiens) (UniProt P00519); assay: Abl(h) Millipore kinase panel; settings: Compound concentration 10.0 uM
[52] = target: Sodium-dependent noradrenaline transporter (Homo sapiens) (UniProt P23975); assay: NE transporter (h) CEREP panel; settings: Compound concentration 1.0 uM
[53] = target: Kappa-type opioid receptor (Homo sapiens) (UniProt P41145); assay: kappa (h) CEREP panel; settings: Compound concentration 1.0 uM
[54] = target: RAC-beta serine/threonine-protein kinase (Homo sapiens) (UniProt P31751); assay: PKBβ(h) Millipore kinase panel; settings: Compound concentration 10.0 uM

Measured: inhibition

Sequence of Calcium/calmodulin-dependent protein kinase type 1 (Homo sapiens) (Q14012 whole entry, looked up): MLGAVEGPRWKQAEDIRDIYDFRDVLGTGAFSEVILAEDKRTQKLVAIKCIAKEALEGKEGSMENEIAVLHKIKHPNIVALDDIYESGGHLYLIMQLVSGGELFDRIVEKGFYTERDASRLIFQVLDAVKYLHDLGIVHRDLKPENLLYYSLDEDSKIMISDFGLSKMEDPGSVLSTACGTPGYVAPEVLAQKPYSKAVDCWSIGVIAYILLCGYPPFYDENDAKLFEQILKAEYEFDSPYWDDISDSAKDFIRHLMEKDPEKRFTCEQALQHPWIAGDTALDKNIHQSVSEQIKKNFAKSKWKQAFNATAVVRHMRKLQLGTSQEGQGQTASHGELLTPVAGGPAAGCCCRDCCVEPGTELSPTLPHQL
Sequence of Tyrosine-protein kinase ABL1 (Homo sapiens) (P00519 whole entry): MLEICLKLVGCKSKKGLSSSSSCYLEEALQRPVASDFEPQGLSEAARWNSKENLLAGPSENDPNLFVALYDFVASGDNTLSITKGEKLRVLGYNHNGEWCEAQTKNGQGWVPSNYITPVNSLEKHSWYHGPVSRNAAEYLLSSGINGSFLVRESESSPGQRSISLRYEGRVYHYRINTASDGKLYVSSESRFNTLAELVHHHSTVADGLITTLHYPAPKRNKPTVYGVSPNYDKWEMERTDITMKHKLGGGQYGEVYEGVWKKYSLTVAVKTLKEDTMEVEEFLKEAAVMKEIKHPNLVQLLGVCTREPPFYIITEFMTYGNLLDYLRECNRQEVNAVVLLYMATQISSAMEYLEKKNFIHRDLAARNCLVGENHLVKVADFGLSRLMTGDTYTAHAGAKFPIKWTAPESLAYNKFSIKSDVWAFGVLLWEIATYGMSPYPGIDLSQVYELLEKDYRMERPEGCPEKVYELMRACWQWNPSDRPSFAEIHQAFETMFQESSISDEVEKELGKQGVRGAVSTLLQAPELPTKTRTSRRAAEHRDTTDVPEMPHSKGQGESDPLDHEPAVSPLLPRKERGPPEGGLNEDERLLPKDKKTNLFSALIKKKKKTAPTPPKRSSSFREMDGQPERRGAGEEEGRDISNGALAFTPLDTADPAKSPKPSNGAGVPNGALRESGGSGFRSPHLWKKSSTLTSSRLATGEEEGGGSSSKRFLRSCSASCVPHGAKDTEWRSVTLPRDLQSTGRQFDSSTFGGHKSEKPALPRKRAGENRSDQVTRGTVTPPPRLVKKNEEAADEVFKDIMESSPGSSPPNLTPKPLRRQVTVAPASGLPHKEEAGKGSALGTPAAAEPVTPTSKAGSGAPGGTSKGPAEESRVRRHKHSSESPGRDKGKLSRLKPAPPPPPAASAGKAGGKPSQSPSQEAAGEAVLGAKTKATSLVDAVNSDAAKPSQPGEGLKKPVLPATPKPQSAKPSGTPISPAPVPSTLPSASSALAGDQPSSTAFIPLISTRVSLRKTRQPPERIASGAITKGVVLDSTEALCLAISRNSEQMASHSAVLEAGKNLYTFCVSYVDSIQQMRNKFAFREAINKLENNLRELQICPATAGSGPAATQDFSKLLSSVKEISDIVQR
Sequence of Serine/threonine-protein kinase PLK3 (Homo sapiens) (Q9H4B4 whole entry, looked up): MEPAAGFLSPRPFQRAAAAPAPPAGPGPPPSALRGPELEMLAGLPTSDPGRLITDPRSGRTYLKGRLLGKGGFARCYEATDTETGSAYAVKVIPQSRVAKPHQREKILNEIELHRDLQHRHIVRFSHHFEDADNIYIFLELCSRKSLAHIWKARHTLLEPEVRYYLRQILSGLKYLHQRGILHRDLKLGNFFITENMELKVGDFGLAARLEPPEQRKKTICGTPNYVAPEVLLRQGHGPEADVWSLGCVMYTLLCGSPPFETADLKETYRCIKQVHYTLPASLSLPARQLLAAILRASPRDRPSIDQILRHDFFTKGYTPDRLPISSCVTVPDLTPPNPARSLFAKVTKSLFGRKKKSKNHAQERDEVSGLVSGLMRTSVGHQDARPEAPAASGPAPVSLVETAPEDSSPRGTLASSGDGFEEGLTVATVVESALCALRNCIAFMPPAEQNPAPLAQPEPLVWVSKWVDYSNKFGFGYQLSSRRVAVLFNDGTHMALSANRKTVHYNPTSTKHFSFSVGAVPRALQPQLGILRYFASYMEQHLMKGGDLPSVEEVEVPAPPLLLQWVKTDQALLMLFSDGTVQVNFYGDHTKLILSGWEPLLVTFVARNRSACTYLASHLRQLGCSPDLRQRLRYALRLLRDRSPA
Sequence of Interleukin-1 receptor-associated kinase 1 (Homo sapiens) (P51617 whole entry, looked up): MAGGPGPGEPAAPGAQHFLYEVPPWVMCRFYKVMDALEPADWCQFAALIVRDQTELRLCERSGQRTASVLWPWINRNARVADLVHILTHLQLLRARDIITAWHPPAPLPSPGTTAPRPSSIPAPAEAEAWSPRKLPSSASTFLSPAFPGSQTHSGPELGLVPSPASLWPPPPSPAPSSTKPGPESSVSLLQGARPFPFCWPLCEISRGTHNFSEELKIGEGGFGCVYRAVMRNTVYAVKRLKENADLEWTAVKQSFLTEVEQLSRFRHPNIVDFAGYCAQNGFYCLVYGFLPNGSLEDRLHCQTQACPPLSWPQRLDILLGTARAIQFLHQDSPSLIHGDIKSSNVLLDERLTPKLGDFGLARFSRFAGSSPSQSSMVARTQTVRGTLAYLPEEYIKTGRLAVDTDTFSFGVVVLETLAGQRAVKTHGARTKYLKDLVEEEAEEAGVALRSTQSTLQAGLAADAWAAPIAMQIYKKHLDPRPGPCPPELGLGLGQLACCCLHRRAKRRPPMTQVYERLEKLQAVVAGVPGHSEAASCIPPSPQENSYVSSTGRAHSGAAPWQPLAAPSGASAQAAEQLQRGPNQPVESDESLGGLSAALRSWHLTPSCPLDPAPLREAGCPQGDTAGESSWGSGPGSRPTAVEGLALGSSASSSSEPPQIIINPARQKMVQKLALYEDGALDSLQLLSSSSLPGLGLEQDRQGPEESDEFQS
Sequence of Kappa-type opioid receptor (Homo sapiens) (P41145 whole entry): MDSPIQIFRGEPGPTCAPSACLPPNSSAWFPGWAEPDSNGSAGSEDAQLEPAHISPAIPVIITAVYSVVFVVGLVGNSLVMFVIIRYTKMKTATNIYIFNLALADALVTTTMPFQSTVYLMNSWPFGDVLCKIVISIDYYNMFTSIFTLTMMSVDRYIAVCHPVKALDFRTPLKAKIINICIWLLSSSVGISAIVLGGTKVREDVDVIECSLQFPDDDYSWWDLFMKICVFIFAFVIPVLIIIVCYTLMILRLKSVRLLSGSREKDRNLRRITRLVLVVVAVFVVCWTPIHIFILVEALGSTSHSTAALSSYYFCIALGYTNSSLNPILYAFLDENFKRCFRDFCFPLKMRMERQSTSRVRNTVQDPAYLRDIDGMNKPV
Sequence of Serine/threonine-protein kinase DCLK2 (Homo sapiens) (Q8N568 whole entry): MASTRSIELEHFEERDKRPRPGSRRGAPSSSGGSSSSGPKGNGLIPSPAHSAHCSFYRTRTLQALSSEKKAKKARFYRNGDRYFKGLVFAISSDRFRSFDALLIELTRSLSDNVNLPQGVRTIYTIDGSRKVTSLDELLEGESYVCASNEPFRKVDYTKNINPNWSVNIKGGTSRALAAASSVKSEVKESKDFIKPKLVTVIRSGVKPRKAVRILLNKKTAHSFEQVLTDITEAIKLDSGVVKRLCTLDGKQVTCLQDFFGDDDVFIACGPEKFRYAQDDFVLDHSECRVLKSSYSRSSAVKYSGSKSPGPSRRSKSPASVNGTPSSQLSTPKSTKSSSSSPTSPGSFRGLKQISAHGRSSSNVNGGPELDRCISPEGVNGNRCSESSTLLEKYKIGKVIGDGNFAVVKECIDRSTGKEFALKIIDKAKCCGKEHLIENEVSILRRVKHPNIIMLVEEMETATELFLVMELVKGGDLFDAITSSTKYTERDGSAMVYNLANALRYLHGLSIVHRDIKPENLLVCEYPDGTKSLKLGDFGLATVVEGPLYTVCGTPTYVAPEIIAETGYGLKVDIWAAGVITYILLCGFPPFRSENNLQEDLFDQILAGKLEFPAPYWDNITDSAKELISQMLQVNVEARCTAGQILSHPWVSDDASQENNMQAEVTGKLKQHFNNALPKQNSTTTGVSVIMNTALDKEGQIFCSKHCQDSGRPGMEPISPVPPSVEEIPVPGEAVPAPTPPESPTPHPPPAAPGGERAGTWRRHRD
Sequence of Sodium-dependent noradrenaline transporter (Homo sapiens) (P23975 whole entry): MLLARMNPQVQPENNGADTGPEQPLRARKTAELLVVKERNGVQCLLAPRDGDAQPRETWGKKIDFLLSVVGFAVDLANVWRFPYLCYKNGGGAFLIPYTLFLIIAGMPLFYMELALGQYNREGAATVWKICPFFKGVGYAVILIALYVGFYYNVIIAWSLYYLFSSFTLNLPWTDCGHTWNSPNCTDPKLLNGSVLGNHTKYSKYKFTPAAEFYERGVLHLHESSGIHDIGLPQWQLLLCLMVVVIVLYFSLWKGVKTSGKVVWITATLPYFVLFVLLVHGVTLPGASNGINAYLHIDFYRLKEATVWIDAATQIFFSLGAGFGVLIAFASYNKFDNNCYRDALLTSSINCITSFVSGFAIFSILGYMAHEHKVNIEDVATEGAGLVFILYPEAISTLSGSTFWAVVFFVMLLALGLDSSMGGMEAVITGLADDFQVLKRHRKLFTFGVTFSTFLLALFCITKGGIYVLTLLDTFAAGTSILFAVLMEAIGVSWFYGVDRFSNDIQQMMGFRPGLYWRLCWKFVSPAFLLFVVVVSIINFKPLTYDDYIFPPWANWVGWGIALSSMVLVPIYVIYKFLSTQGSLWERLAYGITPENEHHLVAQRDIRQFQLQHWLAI
Sequence of Histamine H2 receptor (Homo sapiens) (P25021 whole entry): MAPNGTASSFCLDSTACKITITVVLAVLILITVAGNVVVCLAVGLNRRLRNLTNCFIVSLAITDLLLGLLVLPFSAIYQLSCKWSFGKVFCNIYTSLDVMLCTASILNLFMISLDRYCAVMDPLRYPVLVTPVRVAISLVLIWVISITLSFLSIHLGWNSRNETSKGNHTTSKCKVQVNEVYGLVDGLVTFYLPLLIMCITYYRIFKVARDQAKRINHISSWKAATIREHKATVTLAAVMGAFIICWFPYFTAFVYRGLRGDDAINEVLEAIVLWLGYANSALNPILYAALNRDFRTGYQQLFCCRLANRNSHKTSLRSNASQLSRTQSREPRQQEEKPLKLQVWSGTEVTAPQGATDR

CC(C)c1cc(N2CC[C@@H](N)C2)nc(N)n1
inactive: [1] -5% | [2] < 10% | [3] -6% | [4] < 10% | [5] 12% | [6] < 10% | [7] -10% | [8] -5% | [9] 3% | [10] 3% | [11] -9% | [12] 6% | [13] < 10% | [14] < 10% | [15] 7% | [16] < 10% | [17] -2% | [18] 8% | [19] 8% | [20] 9% | [21] -8% | [22] < 10% | Homo sapiens 4% | [23] < 10% | [24] < 10% | [25] 18% | [26] 12% | [27] -1% | [28] -3% | [29] 3% | [30] < 10% | [31] -2% | [32] 1% | [33] < 10% | [34] -6% | [35] < 10% | [36] 6% | [37] -7% | [38] < 10% | [39] 1% | [40] < 10% | [41] -5% | [42] 0% | [43] < 10% | [44] < 10% | [45] < 10% | [46] 13% | [47] 64% | [48] < 10% | [49] -2% | [50] < 10% | [51] -2% | [52] 10% | [53] < 10% | [54] -5%
